The source made the active and inactive calls.
How the values were obtained:
[1] = molecular target: T1, DNA repair and recombination protein RAD54-like (Homo sapiens, UniProt Q92698); test: RAD54 Holliday junction migration blockers – biochemical, fluorescence, cherry-picked samples, dose series, confirmation (AID 651657); type: functional
T1 sequence (Q92698 whole entry): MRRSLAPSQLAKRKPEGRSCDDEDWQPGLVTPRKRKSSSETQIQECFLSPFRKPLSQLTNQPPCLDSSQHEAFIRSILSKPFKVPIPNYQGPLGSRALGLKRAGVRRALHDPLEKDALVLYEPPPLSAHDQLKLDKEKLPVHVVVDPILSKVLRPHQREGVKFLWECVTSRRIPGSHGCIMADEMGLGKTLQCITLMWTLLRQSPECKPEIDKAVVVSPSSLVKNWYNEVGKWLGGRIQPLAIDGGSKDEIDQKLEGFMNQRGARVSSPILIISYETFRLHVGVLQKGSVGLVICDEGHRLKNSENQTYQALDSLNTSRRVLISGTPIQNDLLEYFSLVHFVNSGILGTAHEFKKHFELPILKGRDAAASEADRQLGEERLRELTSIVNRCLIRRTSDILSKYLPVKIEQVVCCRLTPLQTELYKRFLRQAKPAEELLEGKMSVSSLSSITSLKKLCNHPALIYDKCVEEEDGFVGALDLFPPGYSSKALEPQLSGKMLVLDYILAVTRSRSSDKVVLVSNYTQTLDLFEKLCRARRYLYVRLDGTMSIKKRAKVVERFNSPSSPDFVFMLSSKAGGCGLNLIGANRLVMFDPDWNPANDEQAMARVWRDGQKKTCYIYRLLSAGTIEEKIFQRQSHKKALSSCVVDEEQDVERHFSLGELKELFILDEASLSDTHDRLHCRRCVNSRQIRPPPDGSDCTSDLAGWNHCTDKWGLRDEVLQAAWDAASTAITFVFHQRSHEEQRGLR

H9c2 = test: cells; type: functional, cell-based; details: Rattus norvegicus, H9c2, Myocardium;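 note: confirmatory concentration-response retest of ultra-high-throughput screening hits for modulation of myocardial damage; cell death induced by hydrogen peroxide oxidative stress; compound pretreatment for 60 min then peroxide exposure for 2 h; potency is for protecting the cells against peroxide damage rather than for killing them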
[2] = luciferase reporter signal suppression in cells – H4 neuroglioma cells, luminescence, dose response (AID 1990); type: functional, cell-based
[3] = Luminescence Cell-Based Dose Response HTS to Identify Inhibitors of 5'UTR Stem-Loop Driven Prion Protein mRNA Translation in H4 Neuroglioblastoma Cells. [Related pubchem assays: 1827 (Project Summary), 1813 (Primary HTS)]; type: functional
[4] = alpha-synuclein stem-loop luciferase translation blockers – H4 neuroglioma cells, luminescence, confirmation (AID 1988); type: functional, cell-based
HEK293 [5] = test: EBV LMP1 TES2 canonical NF-kB signalling blockers – cell-based, HEK293, luciferase, cherry-pick, dose response (AID 588343); type: functional; details: Homo sapiens
HEK293 [6] = test: cells; type: functional, cell-based; details: Homo sapiens
HEK293 [7] = test: cells; type: functional, cell-based; details: Homo sapiens; remark: listed apart in the source
HEK293 [8] = test: NOD2 signaling inhibitors in MDP-stimulated cells, cell-based, uHTS, luminescence (AID 2001); type: functional; details: Homo sapiens
HEK293 [9] = test: inhibition of NOD1-driven NF-kB reporter – cell-based, luminescence, uHTS, primary screen (AID 1578); type: functional; details: Homo sapiens
Cytochrome P450 2D6 = Cytochrome P450 2D6 (Homo sapiens, UniProt P10635);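 note: CYP2D6 member of a cytochrome P450 panel assay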
Chain of Cytochrome P450 2D6 (P10635 whole entry): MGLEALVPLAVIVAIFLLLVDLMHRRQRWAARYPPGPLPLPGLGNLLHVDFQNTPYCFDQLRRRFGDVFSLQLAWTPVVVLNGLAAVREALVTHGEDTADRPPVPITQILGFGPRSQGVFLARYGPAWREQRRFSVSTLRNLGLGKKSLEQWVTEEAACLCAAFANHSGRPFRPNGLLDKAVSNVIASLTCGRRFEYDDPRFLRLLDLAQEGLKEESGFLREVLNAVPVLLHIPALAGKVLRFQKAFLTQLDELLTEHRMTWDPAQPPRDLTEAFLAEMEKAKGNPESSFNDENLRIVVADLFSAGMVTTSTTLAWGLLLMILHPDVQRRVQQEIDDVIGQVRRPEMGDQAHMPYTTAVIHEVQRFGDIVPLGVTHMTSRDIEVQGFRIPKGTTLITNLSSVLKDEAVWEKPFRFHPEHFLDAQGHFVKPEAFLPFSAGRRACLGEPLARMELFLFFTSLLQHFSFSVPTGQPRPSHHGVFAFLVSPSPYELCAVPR

Cytochrome P450 2C9 = Cytochrome P450 2C9 (Homo sapiens, UniProt P11712)
Chain of Cytochrome P450 2C9 (P11712 whole entry): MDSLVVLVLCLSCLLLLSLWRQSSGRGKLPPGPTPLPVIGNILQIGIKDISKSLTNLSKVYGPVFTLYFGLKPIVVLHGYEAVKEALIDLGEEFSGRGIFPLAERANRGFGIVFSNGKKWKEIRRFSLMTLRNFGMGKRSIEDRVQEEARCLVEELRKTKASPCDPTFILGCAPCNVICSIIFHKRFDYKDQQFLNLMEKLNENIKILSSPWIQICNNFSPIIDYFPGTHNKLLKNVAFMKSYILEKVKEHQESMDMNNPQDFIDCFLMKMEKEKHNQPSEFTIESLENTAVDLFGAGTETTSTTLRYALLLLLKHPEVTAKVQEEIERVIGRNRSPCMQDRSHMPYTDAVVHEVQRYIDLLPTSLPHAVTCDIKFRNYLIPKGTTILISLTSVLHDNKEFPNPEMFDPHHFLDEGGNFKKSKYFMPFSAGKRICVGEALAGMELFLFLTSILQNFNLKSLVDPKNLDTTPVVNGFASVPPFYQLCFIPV

Cytochrome P450 2C19 = Cytochrome P450 2C19 (Homo sapiens, UniProt P33261); test: Cytochrome panel assay with activity outcomes. Panel member name: p450-cyp2c19 Compounds with AC50 equal or less than 10 uM are considered active; type: functional; details: read-out: AC50
Chain of Cytochrome P450 2C19 (P33261 whole entry): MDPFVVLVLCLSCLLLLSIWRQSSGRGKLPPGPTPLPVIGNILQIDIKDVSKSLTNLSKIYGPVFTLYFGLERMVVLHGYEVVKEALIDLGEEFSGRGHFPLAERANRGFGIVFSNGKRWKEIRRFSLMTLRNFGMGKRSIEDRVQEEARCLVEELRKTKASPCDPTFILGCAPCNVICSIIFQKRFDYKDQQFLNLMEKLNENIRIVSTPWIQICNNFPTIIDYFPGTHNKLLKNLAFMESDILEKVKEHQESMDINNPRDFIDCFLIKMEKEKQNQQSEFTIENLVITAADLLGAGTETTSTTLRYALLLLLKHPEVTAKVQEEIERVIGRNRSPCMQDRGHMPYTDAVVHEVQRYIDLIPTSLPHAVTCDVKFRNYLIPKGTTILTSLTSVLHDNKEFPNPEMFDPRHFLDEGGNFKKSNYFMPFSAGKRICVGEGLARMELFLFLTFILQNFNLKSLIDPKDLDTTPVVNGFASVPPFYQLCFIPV

[10] = molecular target: T2, Histone-lysine N-methyltransferase NSD2 (Homo sapiens, UniProt O96028); type: biochemical
T2 sequence (O96028 whole entry): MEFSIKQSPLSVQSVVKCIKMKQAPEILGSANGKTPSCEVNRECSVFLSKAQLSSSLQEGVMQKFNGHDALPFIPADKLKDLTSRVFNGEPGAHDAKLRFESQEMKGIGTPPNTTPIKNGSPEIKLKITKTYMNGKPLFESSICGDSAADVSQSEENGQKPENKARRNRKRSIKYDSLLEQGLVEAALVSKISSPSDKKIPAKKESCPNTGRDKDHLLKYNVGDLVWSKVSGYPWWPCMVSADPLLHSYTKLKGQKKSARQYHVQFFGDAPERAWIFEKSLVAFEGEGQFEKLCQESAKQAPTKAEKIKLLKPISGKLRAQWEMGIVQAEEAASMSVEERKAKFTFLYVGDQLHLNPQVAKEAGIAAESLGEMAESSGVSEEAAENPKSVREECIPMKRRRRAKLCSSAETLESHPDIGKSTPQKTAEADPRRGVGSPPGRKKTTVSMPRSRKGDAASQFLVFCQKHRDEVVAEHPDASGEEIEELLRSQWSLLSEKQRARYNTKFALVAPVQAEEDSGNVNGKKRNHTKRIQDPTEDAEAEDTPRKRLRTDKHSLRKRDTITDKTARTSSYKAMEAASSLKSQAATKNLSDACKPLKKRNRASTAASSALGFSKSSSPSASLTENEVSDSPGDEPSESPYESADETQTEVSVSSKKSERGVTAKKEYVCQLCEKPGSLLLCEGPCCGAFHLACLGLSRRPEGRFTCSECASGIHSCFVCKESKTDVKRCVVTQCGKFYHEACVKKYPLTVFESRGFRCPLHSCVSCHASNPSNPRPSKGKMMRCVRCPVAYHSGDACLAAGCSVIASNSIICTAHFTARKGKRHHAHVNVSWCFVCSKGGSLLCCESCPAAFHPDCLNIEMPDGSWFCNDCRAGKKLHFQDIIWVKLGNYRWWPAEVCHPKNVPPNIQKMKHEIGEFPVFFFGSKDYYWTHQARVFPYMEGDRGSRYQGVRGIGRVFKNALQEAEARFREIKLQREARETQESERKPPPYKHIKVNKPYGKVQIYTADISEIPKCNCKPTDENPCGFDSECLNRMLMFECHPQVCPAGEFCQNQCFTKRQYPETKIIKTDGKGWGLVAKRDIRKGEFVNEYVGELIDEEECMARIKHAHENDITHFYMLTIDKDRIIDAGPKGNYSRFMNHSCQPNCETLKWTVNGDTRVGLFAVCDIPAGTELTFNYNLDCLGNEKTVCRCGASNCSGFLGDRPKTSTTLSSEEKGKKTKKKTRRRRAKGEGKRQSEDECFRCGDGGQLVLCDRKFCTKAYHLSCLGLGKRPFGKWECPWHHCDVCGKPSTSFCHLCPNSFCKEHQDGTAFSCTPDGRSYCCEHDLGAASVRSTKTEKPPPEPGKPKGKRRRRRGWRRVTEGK

[11] = molecular target: T3, Short transient receptor potential channel 4 (Mus musculus, UniProt Q9QUQ5); test: block of DAMGO-driven TRPC4 calcium entry – cell-based, HEK293 TRPC4/mu-opioid, Fluo-4 calcium, dose response (AID 434942); type: functional;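 note: potency of inhibitors blocking the TRPC4 calcium response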
T3 sequence (Q9QUQ5 whole entry): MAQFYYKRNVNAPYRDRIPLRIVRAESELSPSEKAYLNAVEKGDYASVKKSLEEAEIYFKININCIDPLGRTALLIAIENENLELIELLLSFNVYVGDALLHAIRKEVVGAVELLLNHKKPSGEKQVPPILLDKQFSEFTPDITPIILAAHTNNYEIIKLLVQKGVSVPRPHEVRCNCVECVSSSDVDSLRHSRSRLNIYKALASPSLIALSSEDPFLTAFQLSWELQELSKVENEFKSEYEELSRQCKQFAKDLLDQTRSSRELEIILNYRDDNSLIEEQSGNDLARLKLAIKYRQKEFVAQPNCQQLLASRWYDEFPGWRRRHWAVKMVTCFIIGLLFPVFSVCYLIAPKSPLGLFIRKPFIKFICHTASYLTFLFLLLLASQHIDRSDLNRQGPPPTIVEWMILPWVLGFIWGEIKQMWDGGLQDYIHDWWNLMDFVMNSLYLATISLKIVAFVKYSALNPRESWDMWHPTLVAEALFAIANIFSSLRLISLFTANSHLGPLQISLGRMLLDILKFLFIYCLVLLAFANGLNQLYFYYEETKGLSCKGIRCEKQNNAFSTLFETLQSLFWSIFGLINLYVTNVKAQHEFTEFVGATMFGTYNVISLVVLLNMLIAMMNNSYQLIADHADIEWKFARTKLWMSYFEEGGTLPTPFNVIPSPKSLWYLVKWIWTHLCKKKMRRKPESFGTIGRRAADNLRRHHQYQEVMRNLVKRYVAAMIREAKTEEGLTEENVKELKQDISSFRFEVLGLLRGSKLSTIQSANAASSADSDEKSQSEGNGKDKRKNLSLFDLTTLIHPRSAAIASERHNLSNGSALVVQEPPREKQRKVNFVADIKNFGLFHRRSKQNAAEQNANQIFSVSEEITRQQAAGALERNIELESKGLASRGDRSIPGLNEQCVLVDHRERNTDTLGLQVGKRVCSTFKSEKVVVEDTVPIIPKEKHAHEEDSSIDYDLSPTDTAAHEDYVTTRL

[12] = molecular target: T3, Short transient receptor potential channel 4; test: calcium entry via TRPC4 opening agents – cell-based, HEK293 TRPC4/mu-opioid, Fluo-4 calcium, dose response (AID 434937); type: functional
[13] = molecular target: T4, Heat shock factor protein 1 (Mus musculus, UniProt P38532); test: enhancement of HSF1-driven luciferase signal – cell-based, NIH3T3, luminescence, dose retest, confirmation (AID 435004); type: functional;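 note: stress induced by proteasome inhibitor MG132 added 30 min after compound; luciferase reporter driven by HSF1 response element in NIH3T3 cells; actives raise luminescence as potentiators of the MG132 stress response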
T4 sequence (P38532 whole entry): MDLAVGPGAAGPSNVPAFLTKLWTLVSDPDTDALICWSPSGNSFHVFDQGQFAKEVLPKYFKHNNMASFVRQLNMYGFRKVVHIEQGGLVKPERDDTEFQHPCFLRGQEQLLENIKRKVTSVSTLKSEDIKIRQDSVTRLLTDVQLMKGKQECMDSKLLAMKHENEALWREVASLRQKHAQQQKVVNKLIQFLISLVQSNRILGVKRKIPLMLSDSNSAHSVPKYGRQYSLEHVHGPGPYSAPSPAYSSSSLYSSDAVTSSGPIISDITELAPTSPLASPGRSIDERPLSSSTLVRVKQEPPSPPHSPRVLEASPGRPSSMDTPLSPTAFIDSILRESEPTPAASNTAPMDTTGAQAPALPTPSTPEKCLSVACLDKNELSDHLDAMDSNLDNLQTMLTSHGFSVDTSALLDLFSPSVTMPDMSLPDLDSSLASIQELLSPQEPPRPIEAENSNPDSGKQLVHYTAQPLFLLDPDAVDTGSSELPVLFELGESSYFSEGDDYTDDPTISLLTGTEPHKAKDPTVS

[14] = blockers of HIV-1 envelope-mediated cell-cell fusion – cherry-pick, dose response (AID 652057); type: functional, cell-based
[15] = HIV-1 AD8 envelope cell-cell fusion blockers – cherry-pick, dose response (AID 652062); type: functional, cell-based;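 note: luciferase signal from cell-cell fusion driven by HIV-1 clade B AD8 Env; potency is for inhibitors of fusion seen as a drop in luminescence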
[16] = Luminescence Cell-Based Dose Confirmation HTS to Identify Inhibitors of Platelet Dense Granule Release. [Related pubchem assays: 1663 (Primary HTS), 1678 (Summary of Project)]; type: functional
[17] = molecular target: Luciferin 4-monooxygenase (Photinus pyralis, UniProt P08659); test: inhibition of purified Photinus pyralis luciferase – biochemical, luminescence, dose response (AID 1891)
Chain of Luciferin 4-monooxygenase (P08659 whole entry): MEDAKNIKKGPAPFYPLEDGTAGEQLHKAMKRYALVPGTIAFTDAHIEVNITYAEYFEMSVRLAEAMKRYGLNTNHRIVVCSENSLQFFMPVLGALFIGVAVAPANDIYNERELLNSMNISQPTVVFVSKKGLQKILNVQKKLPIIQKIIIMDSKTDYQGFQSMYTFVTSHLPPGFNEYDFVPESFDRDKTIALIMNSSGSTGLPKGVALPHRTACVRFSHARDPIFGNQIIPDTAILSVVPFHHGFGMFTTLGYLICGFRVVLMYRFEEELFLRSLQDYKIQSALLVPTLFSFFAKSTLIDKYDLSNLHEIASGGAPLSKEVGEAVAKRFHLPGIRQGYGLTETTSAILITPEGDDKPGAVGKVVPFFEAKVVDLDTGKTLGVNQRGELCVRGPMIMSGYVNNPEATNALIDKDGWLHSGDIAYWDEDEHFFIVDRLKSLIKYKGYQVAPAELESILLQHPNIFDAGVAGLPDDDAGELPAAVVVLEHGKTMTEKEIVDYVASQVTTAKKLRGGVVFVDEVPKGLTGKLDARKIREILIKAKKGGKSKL

Cc1cc(C)n(-c2nc(NCCN(C)C)c3c4c(sc3n2)COC(C)(C)C4)n1
AC50 [1]: 100 µM (inactive)

N#CC1(NC(=O)COC(=O)Cn2[nH]c(=O)c3ccccc3c2=O)CCCCC1
IC50 (H9c2): > 79 µM (inactive)

Cc1cc(C(=O)COc2cccnc2[N+](=O)[O-])c(C)n1-c1ccccc1F
EC50 [2]: 6.07 µM (active) | EC50 [3]: 16.8 µM (active) | EC50 [4]: 0.791 µM (active) | AC50 (HEK293 [5]): 2.61 µM (active)

Cc1nc2cc(NC(=O)c3ccc([N+](=O)[O-])s3)ccc2s1
IC50 (HEK293 [6]): > 20 µM (inactive) | EC50 [2]: < 0.1 µM (active) | IC50 (HEK293 [7]): > 20 µM (inactive) | EC50 [3]: 4.17 µM (active) | IC50 (HEK293 [8]): > 20 µM (inactive) | EC50 [4]: 0.95 µM (active) | EC50 (HEK293 [9]): 3.16 µM (active)

O=C(CCCN1C(=O)c2cccc3cccc(c23)C1=O)N1CCN(c2ccccc2O)CC1
IC50 (H9c2): 9.95 µM (active)

COc1ccc(C(C(=O)NC2CCCCC2)N2CCC3(CC2)OCCO3)cc1 (stereo unspecified)
AC50 (Cytochrome P450 2D6): 0.316 µM (inconclusive) | AC50 (Cytochrome P450 2C9): inconclusive

COc1cccc(C(=O)NNC2=CC(=O)CC(C)(C)C2)c1
AC50 (Cytochrome P450 2D6): 12.6 µM (inconclusive) | AC50 (Cytochrome P450 2C19): 25.1 µM (inconclusive) | AC50 (Cytochrome P450 2C9): inconclusive

CNCC[C@H](Oc1ccc(C(F)(F)F)cc1)c1ccccc1
AC50 (Cytochrome P450 2C9): inactive

COc1ccc(-c2csc(NC(=O)CCn3cnc4ccccc4c3=O)n2)cc1OC
IC50 (H9c2): 27.9 µM (active)

FC(F)(F)c1cc(C(F)(F)F)c2ccc(N/N=C/c3cccc(Cl)c3)nc2n1
AC50 (Cytochrome P450 2C19): 17.8 µM (inconclusive) | AC50 (Cytochrome P450 2C9): inconclusive

Cc1ccc2nc(O)c3cc(C(=O)NCCN4CCN(C)CC4)sc3c2c1
AC50 [1]: 56.7 µM (active)

CCN(CC)CCC/N=C(\C)C1=C(O)c2ccccc2C1=O
AC50 [10]: > 20 µM (inactive)

O=C(CCCc1ccc(N(CCCl)CCCl)cc1)NCc1ccccc1
AC50 (HEK293 [5]): 2.74 µM (active)

CN(C)C1(CNC(=O)CC(NC(=O)c2ccccc2Cl)c2ccccc2)CCCCC1 (stereo unspecified)
EC50 [11]: 0.299 µM (active) | EC50 [12]: 0.668 µM (active)

CCOc1ccc2nc(NC(=O)CN3CCC(n4nnc5cc(F)ccc54)CC3)sc2c1
IC50 (H9c2): > 79 µM (inactive)

CNCCOc1ccccc1-c1ccccc1
AC50 [10]: > 20 µM (inactive)

Cc1ccsc1C(=O)C1CCCN(Cc2ccccc2O)C1 (stereo unspecified)
EC50 [13]: > 260 µM (inactive) | EC50 [11]: 4.22 µM (active)

C[C@H](CO)N1C[C@H](C)[C@@H](CN(C)C(=O)[C@H](Cc2ccccc2)N(C)C)OCc2ccccc2-c2c(n(C)c3ccccc23)C1=O
AC50 [14]: 1.6 µM (active) | AC50 [15]: 13.3 µM (active)

O=C(CCc1nc(O)c2ccccc2n1)N1CCN(S(=O)(=O)c2ccccc2Br)CC1
IC50 (H9c2): > 79 µM (inactive)

Cc1ccc2nc(C)c3c(c2c1)N(c1ccc(F)cc1)CC3
AC50 [1]: 97.9 µM (active) | EC50 [11]: 3.76 µM (active)

COc1ccc(-c2cn3ccc(C)cc3n2)cc1
EC50 [16]: 9.75 µM (active) | EC50 [17]: 1.13 µM (active) | AC50 (HEK293 [5]): 2.62 µM (active)

COc1ccc(N2CCN(S(=O)(=O)c3ccc4c(c3)CCCC4)CC2)c([N+](=O)[O-])c1
AC50 (Cytochrome P450 2C9): inconclusive
